Assay results as given in patent publication US11198897B2, “Rapid antibiotic susceptibility testing by tracking sub-micron scale motion of single bacterial cells” (Arizona Board of Regents on behalf of Arizona State …, priority 2017, dated 2021).

Columns and labels:
E. coli O157:H7 = assay: Sub-μm motion tracking of antibody-tethered E. coli O157:H7 cells exposed to antibiotic; format: cell-based, Escherichia coli; conditions: for Distance (root-mean-square displacement of cell center over 20 sec) of a single cell: 0.5 mg/ml polymyxin B
Description: Referring now to FIG. 2A an image of an E. coli O157:H7 bacterial cell with superimposed motion of the cell center over 20 sec shown as darkened dots is shown. E. coli O157:H7 cells 202 tethered to the glass slide were imaged. […] Scale Bar 203 is 1 μm. 43 The center of each bacterial cell was identified in each image frame (described in more detail below with reference to FIG. 6A-FIG. 6D) and plotted as data points 204 in FIG. 2A′.
As there shown, plot 202 plots motion data 204 in nm in X and Y coordinates ranging from −400 nm to 400 nm. The center positions of the bacterial cell (center) at different moments are shown and reveal the sub-μm scale motion of the cell. For quantitative analysis of the sub-μm motion of the bacterial cell, “Distance” is defined as the root-mean-square of the position over 20 seconds. Note that the motion ranges from about −200 nm to 200 nm displacement along both coordinates.
Referring now to FIG. 3A, images of a bacterial cell and displacement of the cell center in 1×PBS before (0 min) and after polymyxin B addition (2 and 5 min) are shown. Images 301, 302, 303 of a bacterial cell and displacement of the cell center 310 in 1×PBS before (0 min) and after polymyxin B addition (2 and 5 min). Antibiotic effects on the sub-μm motion were examined using a lethal dose of polymyxin B (0.5 mg/ml). Images 301, 302, 303 show the bright-field images of an alive bacterial cell before, 2 min, and 5 min, respectively after exposure to 0.5 mg/ml polymyxin B, where the positions of the bacterial cell before and after the exposure to polymyxin B, represented by indicia 310, 310A and 310B respectively. Scale bar 311 is set at 1 μm. #, p=0.065.
The average E. coli O157:H7 distance over 20 sec. in 1×PBS was 278 nm as indicated by bar 350, which reduced to 225 nm within 2 min after addition of 0.5 mg/ml polymyxin B, indicated by bar 352 and further to 65 nm at 5 min post-antibiotic exposure as plotted in plot 324 and represented by bar 354.
A robust AST method must work for a bacterial population that contains a mixture of loosely and tightly bound cells. […] For this mixed population of bound cells, the DAVG was 265 nm (FIG. 3C) before the addition of polymyxin B and dropped to 123 nm at 10 min post-antibiotic exposure (FIG. 3D).
Clean BK7 glass coverslips were coated with 1.5 nm chromium and 48 nm gold and used as sensing chips. The chips were rinsed with deionized water and ethanol multiple times followed by drying with nitrogen gas and cleaning with a hydrogen flame. For antibody surface, the cleaned chips were submerged in 1 mM PEG/PEG-COOH ethanol solution and left in the dark for 24 h to coat a PEG/PEG-COOH self-assembled monolayer (SAM) on each chip. The PEG/PEG-COOH SAM-coated chips were activated with 500 μl of a freshly prepared mixture of 0.1 M NHS and 0.4M EDC in 1:1 ratio to produce NHS ester receptors, which react with the primary amine groups on the antibodies via an amide bond. Chips with activated PEG/PEG-COOH SAM were cleaned with deionized water and blown dry with nitrogen gas. […]
(§1) To quantify bacterial motion, region props MATLAB command was used to obtain the “Centroid” 603 for each segmented cell in the binary images. The centroid is the X and Y coordinates of the bacterial cell center and is calculated as the mean of all non-zero pixels which the bacterial cell occupies. […]

UPEC cells = assay: Rapid AST by motion tracking (DAVG) of APTES-tethered UPEC cells in 1×PBS; format: cell-based, uropathogenic E. coli
Protocol: To apply the above motion-tracking method to AST of the clinically relevant UPEC strain, UPEC cells were tethered to the glass surface via APTES surface chemistry and conjugation to the amine group of a bacterial surface protein. Antibiotic dose-dependent experiments were performed in a multiplexed format using multi-well slides and a 40× objective. First, baseline images were captured at 0 min for each well. Subsequently, polymyxin B at clinically relevant concentrations (4, 2, 0.5, and 0.25 μg/ml) was added to different wells, and images were recorded at 15 min intervals for 75 min. Finally, as a positive control, a bactericidal dose (0.5 mg/ml) of polymyxin B was added to all wells, and images were recorded after incubation for 15 min (at 90 min). The control well (Well 1) initially harbored 100 tethered cells (as described below with reference to FIG. 8A) with an initial DAVG of 228 nm (FIG. 4A). Over time (0-75 min), the number of cells on the surface increased gradually (as described below with reference to FIG. 8A) due to replication of the surface-tethered cells (as described below with respect to FIG. 9A-10B). During the first 15 min, DAVG increased from 228 nm to 388 nm, followed by a gradual decrease from 388 to 227 nm over 75 min (FIG. 4A). […] DAVG vs. time was analyzed for polymyxin B varying between 0.5-4 μg/ml (FIG. 4B-FIG. 4E), showing clear correlation between the sub-μm motion and antibiotic concentration. […]
All E. coli O157:H7 experiment image sequences were collected at 106 fps at a pixel resolution of 640×480 using the Pike-032B CCD camera. […] The stage was translated to each well sequentially at the marker spot area and recorded 5 sec image sequences for each well. […]
as §1

[1] = test system: UPEC cells in human urine; assay: Rapid AST by motion tracking (DAVG) of UPEC cells in human urine samples; format: cell-based, uropathogenic E. coli
Protocol: Referring now to FIG. 5A-5F, plots of DAVG of UPEC cells in human urine exposed to increasing concentrations of polymyxin B are there illustrated. UPEC cells (5×10^6 cfu/ml) were added to human urine samples, and DAVG was determined over time in the absence and presence of clinically-relevant concentrations of polymyxin B. The bars with vertical striping represent the baseline DAVG measurement of UPEC cells in urine. DAVG measurement of UPEC cells upon exposure to clinically-relevant concentrations of polymyxin B (bars with horizontal striping; antibiotics added immediately after the baseline measurement) and a high, bactericidal concentration of polymyxin B (bars with diagonal striping, 0.5 mg/ml added after the 90-min measurement). DAVG of cells in wells with (a) 0, (b) 0.25, (c) 1, (d) 2, (e) 4, and (f) 8 μg/ml of polymyxin B. *, p<0.05; ns, not significant.
To test the feasibility of an example of a method for analyzing clinically relevant samples, urine samples collected from healthy patients were spiked with UPEC bacterial cells. Following surface tethering, images were recorded from six different wells with polymyxin B doses varying from 0 to 8 μg/ml.
By repeating these experiments with increasing concentrations of UPEC cells in urine samples, the polymyxin B MBC90 min was determined to be between 4 and 8 μg/ml (Table 1). These MBC data corroborated the previous experiments with 5×10^6 cfu/ml and standard culturing methods which proceeded for 16 h (see also FIG. 17A-FIG. 17F).
An aliquot of frozen E. coliO157:H7 or E. coli CFT073 strain was thawed and used to inoculate 3 ml of Luria broth (LB) one day before the experiments. The overnight, saturated culture grown at 37° C. was diluted into fresh LB at a concentration of ˜10^7 cfu/ml and grown at 37° C. with gentle rotary mixing until the cultures reached an OD600 of 0.56, indicating the mid-logarithmic phase of growth. The corresponding concentration of the bacteria was 4.67×10^8 cfu/ml. Bacterial cells were collected by centrifugation at 2000×g for 15 min and resuspended in 1 ml PBS (1×) to an OD of 0.56. […]

UPEC CFT073 = assay: Broth microdilution assay (MIC, MBC) in Mueller Hinton broth; format: cell-based, uropathogenic E. coli
Protocol: (§2) Broth microdilution assay was used to determine the polymyxin B MIC and MBC following a standard protocol.^54 Exponential phase UPEC CFT073 cultures were grown as described above, and bacterial suspensions (1×10^8 cfu/ml) were prepared in Mueller Hinton broth. Bacterial suspensions (100 μl of 5×10^6, 10^7, or 10^8 cfu/ml) were added to wells of 96-well microtiter plates containing polymyxin B (0.125-8 μg/ml). The MIC was determined by measuring the absorbance at 600 nm after 16 h standing incubation at 37° C. Cell viability and MBC values were determined by plating duplicate 10-fold serial dilutions for each sample onto Luria Broth agar plates and enumerating colonies after 16 h incubation at 37° C.
Referring now to FIG. 15, a plot measuring inhibition of UPEC in Mueller Hinton broth (MHB) after incubation with increasing polymyxin B concentrations is shown. Growth inhibition of UPEC in Mueller Hinton broth (MHB) after incubation with increasing polymyxin B concentrations. UPEC cells (5×10^6/ml) were incubated in MHB for 16 h at 37° C., followed by optical density measurements (OD600). Average and standard deviation OD600 measurements collected from triplicate experiments were plotted.
Referring now to FIG. 16, a table illustrating growth inhibition and bactericidal activity of the antibiotic polymyxin B is shown. After determining growth inhibition after […]

[2] = test system: UPEC cells spiked in human urine; assay: Culture AST: bactericidal activity against UPEC in spiked urine samples by plating on Luria agar; format: cell-based, uropathogenic E. coli
Protocol: as §2
Referring now to FIG. 17A-FIG. 17F plots of bactericidal activity of polymyxin B against UPEC in spiked urine samples are shown. UPEC cells were added to human urine samples and exposed to different polymyxin B concentrations. At indicated times, 5 μl of each suspension was inoculated onto Luria agar. After incubation at 37° C. for 16 h, colonies were enumerated and recorded as cfu/ml. The bars with vertical striping represent the initial cfu/ml of UPEC cells in urine, and bars with horizontal striping represent cfu/ml of UPEC cells upon exposure to clinically-relevant concentrations of polymyxin B (antibiotics added immediately after the baseline measurement) in urine.

[3] = after addition of 0.5 mg/ml polymyxin B

polymyxin B
Distance (root-mean-square displacement of cell center over 20 sec) of a single cell (E. coli O157:H7; 2 min after addition, 278 nm in 1×PBS before): 225 nm
Distance (root-mean-square displacement of cell center over 20 sec) of a single cell (E. coli O157:H7; 5 min post-antibiotic exposure, 278 nm before): 65 nm
Viable cells on overnight culturing after exposure (E. coli O157:H7; 5 min exposure to lethal dose 0.5 mg/ml): no viable cells
DAVG change of completely tethered bacterial cells (E. coli O157:H7; [3]): no change
DAVG change of loosely tethered bacterial cells (E. coli O157:H7; [3]): significant decrease
DAVG after lethal polymyxin B concentration (UPEC cells; control well, 0.5 mg/ml added after 75-min measurement, 227 nm before, p<0.05): 64 nm
Number of cells on the surface over 75 min (UPEC cells; polymyxin B 0.5-4 μg/ml, indicating growth inhibition): remained constant
Minimum bactericidal concentration at 75 min (MBC75 min) (UPEC cells; rapid AST, 75 min, 1×PBS): 4 µg/mL
DAVG change in urine ([1]; 4 and 8 μg/ml polymyxin B, p<0.05, to values similar to lethal 0.5 mg/ml dose): decreased significantly
DAVG change over time in urine ([1]; 90 min incubation with 0.25, 1, or 2 μg/ml polymyxin B): either remained unchanged or increased
Rapid AST MBC 90 min ([1]; UPEC concentration in urine 10^8 cfu/ml): 4 µg/mL
Standard incubation (16 h) MBC (UPEC CFT073; quantitative plating after 16 h incubation): 2 µg/mL
Minimum inhibitory concentration (MIC) (UPEC CFT073; standard microdilution broth assay, 16 h incubation): 1 µg/mL
Colonies on Luria agar after bactericidal concentration ([2]; 0.5 mg/ml added after the 90-min measurement, additional 15-min incubation): no colonies were detected
MBC against UPEC cells spiked in human urine ([2]; plating on Luria agar, 16 h at 37° C.): 2 µg/mL
